Data: the CheMixHub viscosity set

Assay: xn = mol fraction of the nth substance listed

CC(=O)[O-].C[N+]1(CC2CO2)CCCC1=O (configuration not stated) + CO
viscosity [mPa·s], 101 kPa
Conditions | 293.15 K | 298.15 K | 303.15 K | 308.15 K | 313.15 K
x1 = 0.036 | 0.71 | 0.66 | 0.62 | 0.57 | 0.52
x1 = 0.0744 | 0.92 | 0.85 | 0.78 | 0.72 | 0.73
x1 = 0.1088 | 1.12 | 1.03 | 0.94 | 0.87 | 0.8
x1 = 0.2024 | 1.69 | 1.52 | 1.38 | 1.26 | 1.15
x1 = 0.3033 | 2.35 | 2.09 | 1.87 | 1.69 | 1.53
x1 = 0.4042 | 3.02 | 2.66 | 2.36 | 2.1 | 1.89
x1 = 0.504 | 3.68 | 3.22 | 2.83 | 2.51 | 2.24
x1 = 0.6015 | 4.28 | 3.71 | 3.25 | 2.86 | 2.54
x1 = 0.7036 | 4.91 | 4.23 | 3.68 | 3.23 | 2.85
x1 = 0.8051 | 5.51 | 4.72 | 4.09 | 3.57 | 3.14
x1 = 0.9086 | 6.14 | 5.21 | 4.49 | 3.9 | 3.42

C[NH2+]CCO.O=C([O-])c1ccccc1O + O
100 kPa, x2 = 0.143
Conditions | viscosity [mPa·s]
298 K | 357.8
303 K | 249.1
313 K | 128.2
323 K | 72.71

CCCCO + CCCO
Conditions | viscosity [mPa·s]
293.15 K, 101.33 kPa, x2 = 0.152 | 2.84
293.15 K, 101.33 kPa, x2 = 0.3302 | 2.715
293.15 K, 101.33 kPa, x2 = 0.5008 | 2.566
293.15 K, 101.33 kPa, x2 = 0.616 | 2.474
293.15 K, 101.33 kPa, x2 = 0.7172 | 2.41
293.15 K, 101.33 kPa, x2 = 0.8933 | 2.282
298.15 K, 101 kPa, x1 = 0.1009 | 2.024
298.15 K, 101 kPa, x1 = 0.2 | 2.082
298.15 K, 101 kPa, x1 = 0.3013 | 2.135
298.15 K, 101 kPa, x1 = 0.4026 | 2.194
298.15 K, 101 kPa, x1 = 0.5009 | 2.254
298.15 K, 101 kPa, x1 = 0.6055 | 2.319
298.15 K, 101 kPa, x1 = 0.6279 | 2.326
298.15 K, 101 kPa, x1 = 0.7983 | 2.432
298.15 K, 101 kPa, x1 = 0.8992 | 2.494
298.15 K, 101.33 kPa, x2 = 0.1147 | 2.507
298.15 K, 101.33 kPa, x2 = 0.3211 | 2.378
298.15 K, 101.33 kPa, x2 = 0.4966 | 2.261
298.15 K, 101.33 kPa, x2 = 0.6315 | 2.172
298.15 K, 101.33 kPa, x2 = 0.7297 | 2.118
298.15 K, 101.33 kPa, x2 = 0.9322 | 2.001

C1=Cc2cccc3cccc1c23 + ClC(Cl)Cl
viscosity [mPa·s], 101 kPa
Conditions | 298.15 K | 303.15 K | 308.15 K | 313.15 K
x1 = 0.1595 | 0.892 | 0.8295 | 0.7764 | 0.7199
x1 = 0.2105 | 0.9695 | 0.907 | 0.8473 | 0.7968

O.OC[C@H]1O[C@H](O[C@H]2[C@H](O)[C@@H](O)[C@H](O)O[C@@H]2CO)[C@H](O)[C@@H](O)[C@@H]1O + O
viscosity [mPa·s]
Conditions | x1 = 0.000899 | x1 = 0.001221 | x1 = 0.001607 | x1 = 0.001874 | x1 = 0.002333 | x1 = 0.002646 | x1 = 0.006
298.15 K, 101 kPa | 0.936 | 0.956 | 0.974 | 0.988 | 1.012 | 1.026 | –
308.15 K, 101 kPa | 0.756 | 0.77 | 0.785 | 0.795 | 0.815 | 0.825 | –
310 K, 101.3 kPa | – | – | – | – | – | – | 1.09
318.15 K, 101 kPa | 0.626 | 0.636 | 0.649 | 0.657 | 0.671 | 0.681 | –

CCCCO + O
Conditions | viscosity [mPa·s]
293.15 K, 100 kPa, x1 = 0.02 | 1.378
293.15 K, 100 kPa, x1 = 0.5485 | 3.301
293.15 K, 101 kPa, x1 = 0.005 | 1.077
293.15 K, 101 kPa, x1 = 0.01 | 1.155
293.15 K, 101 kPa, x1 = 0.015 | 1.232
298.15 K, 101 kPa, x1 = 0.005 | 0.947
298.15 K, 101 kPa, x1 = 0.01 | 1.003
298.15 K, 101 kPa, x1 = 0.015 | 1.058
298.15 K, 101 kPa, x1 = 0.69 | 2.598
298.15 K, 101 kPa, x2 = 0.0398 | 2.622
298.15 K, 101 kPa, x2 = 0.0784 | 2.618
298.15 K, 101 kPa, x2 = 0.1202 | 2.619
298.15 K, 101 kPa, x2 = 0.1424 | 2.62
298.15 K, 101 kPa, x2 = 0.163 | 2.626
298.15 K, 101 kPa, x2 = 0.1955 | 2.634
298.15 K, 101 kPa, x2 = 0.2265 | 2.647
298.15 K, 101 kPa, x2 = 0.2719 | 2.679
298.15 K, 101.3 kPa, x1 = 0.003 | 0.9421
298.15 K, 101.3 kPa, x1 = 0.006 | 0.994
298.15 K, 101.3 kPa, x1 = 0.009 | 1.047
298.15 K, 101.3 kPa, x1 = 0.012 | 1.1
298.15 K, 101.33 kPa, x1 = 0.0017 | 0.921
298.15 K, 101.33 kPa, x1 = 0.00297 | 0.941
298.15 K, 101.33 kPa, x1 = 0.00364 | 0.949
298.15 K, 101.33 kPa, x1 = 0.00491 | 0.97
298.15 K, 101.33 kPa, x1 = 0.00559 | 0.981
298.15 K, 101.33 kPa, x1 = 0.0081 | 1.021
298.15 K, 101.33 kPa, x1 = 0.00972 | 1.048
298.15 K, 101.33 kPa, x1 = 0.0124 | 1.096
298.15 K, 101.33 kPa, x1 = 0.0136 | 1.114
298.15 K, 101.33 kPa, x1 = 0.0151 | 1.141
298.15 K, 101.33 kPa, x1 = 0.0166 | 1.166
298.15 K, 101.33 kPa, x1 = 0.0179 | 1.185
303.15 K, 101 kPa, x1 = 0.005 | 0.842
303.15 K, 101 kPa, x1 = 0.01 | 0.883
303.15 K, 101 kPa, x1 = 0.015 | 0.93
303.15 K, 101.33 kPa, x1 = 0.013 | 0.968
303.15 K, 101.33 kPa, x2 = 0.095 | 2.236
303.15 K, 101.33 kPa, x2 = 0.2526 | 2.272
303.15 K, 101.33 kPa, x2 = 0.4385 | 2.42
308.15 K, 101 kPa, x1 = 0.005 | 0.758
308.15 K, 101 kPa, x1 = 0.01 | 0.794
308.15 K, 101 kPa, x1 = 0.015 | 0.841
308.15 K, 101 kPa, x2 = 0.0398 | 2.032
308.15 K, 101 kPa, x2 = 0.0784 | 2.022
308.15 K, 101 kPa, x2 = 0.1202 | 2.017
308.15 K, 101 kPa, x2 = 0.1424 | 2.016
308.15 K, 101 kPa, x2 = 0.163 | 2.017
308.15 K, 101 kPa, x2 = 0.1955 | 2.024
308.15 K, 101 kPa, x2 = 0.2265 | 2.027
313.15 K, 101 kPa, x1 = 0.005 | 0.682
313.15 K, 101 kPa, x1 = 0.01 | 0.712
313.15 K, 101 kPa, x1 = 0.015 | 0.746
318.15 K, 101 kPa, x1 = 0.005 | 0.62
318.15 K, 101 kPa, x1 = 0.01 | 0.638
318.15 K, 101 kPa, x1 = 0.015 | 0.662
318.15 K, 101 kPa, x2 = 0.0412 | 1.597
318.15 K, 101 kPa, x2 = 0.0733 | 1.588
318.15 K, 101 kPa, x2 = 0.1101 | 1.581
318.15 K, 101 kPa, x2 = 0.1458 | 1.576
318.15 K, 101 kPa, x2 = 0.1755 | 1.571
318.15 K, 101 kPa, x2 = 0.2129 | 1.578
323.15 K, 100 kPa, x1 = 0.02 | 0.668
323.15 K, 100 kPa, x1 = 0.5485 | 1.447
323.15 K, 101 kPa, x1 = 0.005 | 0.566
323.15 K, 101 kPa, x1 = 0.01 | 0.58
323.15 K, 101 kPa, x1 = 0.015 | 0.602

C[C@H](O)C(=O)O + O
viscosity [mPa·s], 101 kPa
Conditions | x1 = 0.000625 | x1 = 0.000941 | x1 = 0.00124 | x1 = 0.00156 | x1 = 0.001899 | x1 = 0.002188 | x1 = 0.002523 | x1 = 0.002822 | x1 = 0.003145
298.15 K | 0.898 | 0.902 | 0.906 | 0.91 | 0.914 | 0.917 | 0.922 | 0.926 | 0.929
308.15 K | 0.731 | 0.734 | 0.736 | 0.738 | 0.741 | 0.744 | 0.747 | 0.75 | 0.753
318.15 K | 0.601 | 0.602 | 0.604 | 0.605 | 0.607 | 0.61 | 0.612 | 0.614 | 0.616

CCCC[N+](CCCC)(CCCC)CCCC.[Br-] + NCCO
101 kPa, x1 = 0.143
Conditions | viscosity [mPa·s]
298.15 K | 53.49
303.15 K | 40.7
308.15 K | 31.66
313.15 K | 25.12
318.15 K | 20.28
323.15 K | 16.63
